Assay results as given in US10357549B2, “Pigment epithelium-derived factor (PEDF) and peptide derivatives thereof for use in osteoblast differentiation and bone growth” (Yale University, priority 2014, dated 2019).

Tests used:
Assay type in all cases: cell-based, human
[1] = tested on: Wnt cell surface receptor LRP6; test: Canonical Wnt-β-catenin signaling in hMSCs (immunoblot of phospho-LRP6 and active β-catenin); conditions: IWP-2 2 μM incubation 48 h alone
Protocol: The inhibitor of Wnt production (IWP-2; Tocris Bioscience, Minneapolis, Minn., USA; 2 μM×24-48 h) was used to block production of endogenous Wnt proteins (Chen et al., 2009, Nat Chem Biol, 5: 100-107; Clevers et al., 2012, Cell, 149: 1192-1205). All other chemicals, unless indicated, were purchased from Sigma (St. Louis, Mo., USA).
Adipose-derived hMSCs [American Type Culture Collection (ATCC), Manasses, Va., USA; PCS-500-011) were propagated in MSC basal medium supplemented with MSC growth kit (ATCC). Cells were CD29, CD44, CD105, and CD166 positive and negative for CD 31, CD34, and CD45. Interrogation of Wnt-β-catenin signaling was done in ATCC MSC basal medium with 2% FBS. PEDF (500 ng/ml) was added for 6 h. Passage 2 and 3 hMSCs were used for Wnt signaling experiments. For adipocyte conversion, cells (5000 cells/cm^2) were placed in adipocyte differentiation medium (ATCC; PCS-500-050) for 9-10 d. For osteoblast differentiation, cells (5000 cells/cm^2) were differentiated in osteoblast differentiation medium (ATCC; PCS-500-052) for 10-21 d. Alkaline phosphatase kit (Sigma) was used to stain osteoblasts.
Immunoblotting was performed as described previously (Schmitz et al., 2011, Am J Pathol, 179: 2990-2999). Proteins were separated by 10% SDS-PAGE on gradient gels (Bio-Rad, Hercules, Calif., USA). Antibodies against nonphosphorylated β-catenin, total β-catenin, phospho-LRP6 (serine 1490), total LRP6 (Cell Signaling Technologies, Danvers, Mass., USA), and alkaline phosphatase (Developmental Studies Hybridoma Bank, University of Iowa, Iowa City, Iowa, USA). To assess signaling through the Wnt coreceptor LRP6, 3T3 adipocyte precursors with vector and LRP6-KO shRNA were used (Liu et al., 2012, J Biol Chem, 287: 7213-7223). On confluence, cells were serum starved for 48 h, and then changed to DMEM with 10% FCS (d 0). PEDF (10 nM) was added on d 0, and cells were harvested after 48 h. Knockdown was confirmed by immunoblotting for total LRP6. β-actin (Sigma) was used as a loading control.

[2] = tested on: hMSCs; test: Mineralization of hMSCs under continuous Wnt3a (Alizarin red, 21 days)
Protocol: Experiments were conducted to evaluate the effect of PEDF-derived peptides on the mineralization of hMSCs. […] For “late” groups, PEDF 34-mer was added only during the last 8 days of the differentiation protocol. Mineralization was assessed by Alizarin red staining (FIG. 14C).

[3] = tested on: β-catenin; test: Active β-catenin and mature osteoblast gene expression in hMSC cultures with Wnt3a and PEDF peptides; conditions: hMSC differentiated for 21 days, 50 ng/ml Wnt3a and 100 nM peptide
Protocol: Experiments were conducted to evaluate the effect of Wnt3a and PEDF-derived peptides on β-catenin, a transcriptional regulator of osteoblast differentiation. Cultures incubated in 50 ng/ml Wnt3a alone or in combination with 100 nM PEDF-derived peptides.

Cc1ccc2nc(NC(=O)CSc3nc4c(c(=O)n3-c3ccccc3)SCC4)sc2c1 [IWP-2, reference compound]
LRP6 phosphorylation (endogenous Wnt production) [1]: near absence of LRP6 phosphorylation

DPFFKVPVNALAAAVSNFGYDLYRVRSSTSPTTN [SEQ ID NO: 4, mutated K→A PEDF 34-mer peptide]
Alizarin red quantitation relative to native PEDF 34-mer ([2]; 100 nM peptide with continuous Wnt3a 50 ng/ml, 21 days): gain of function properties
mineralization of hMSCs, final phase addition ([2]; added last 8 of 21 days): stimulates mineralization
osteoblast mineralization, peptide added in the last eight days ([2]; added last 8 of 21 days, continuous Wnt3a 50 ng/ml): comparable to the full-length protein added for 21 days
expression of osterix (OSX) [3]: increases the expression of osterix (OSX)
